Assays:
[1] = system: Arabidopsis plants transformed with Trichoderma spp-HPPD gene; assay: In-planta screen of plants transformed with fungal HPPD; assay type: in vivo
Protocol: The hppd coding region was cloned into pPA35H binary vector under the control of the CaMV35S constitutive promoter and HSP terminator and was used to transform Arabidopsis plants using agrobacterium according to the dipping flower method, as essentially described in WO 2018/178975. […] 3-4 days post germination, plants were treated with 0.1% and 0.05% Tembotrione (Laudis (Bayer)). HPPD resistant plants were detected one-week post germination.

[2] = system: Arabidopsis control (wt, non-transformed) plants; assay: In-planta screen, control (non-transformed, wt) plants; assay type: in vivo
Source text: The hppd coding region was cloned into pPA35H binary vector under the control of the CaMV35S constitutive promoter and HSP terminator and was used to transform Arabidopsis plants using agrobacterium according to the dipping flower method, as essentially described in WO 2018/178975. T1 generation transformed seeds were germinated on Basta selection (Bayer) according to manufacturer instructions. […] HPPD resistant plants were detected one-week post germination.

[3] = system: HPPD derived from the novel Trichoderma fungus (TP); assay: Bacterial HPPD-activity assay, E. coli BL21 (DE3) transformed with Trichoderma HPPD, brown halo; assay type: cell-based, Trichoderma spp.; details: E. coli BL21 (DE3) on agar screen plates, 25° C., 4 days
Protocol: (§1) E. coli BL21 (DE3) were transformed with the expression vector and monitored for HPPD activity using a colorimetric method as essentially explained in Rocaboy-Faquet. E. et al. (DOI: 10.1007/s00253-014-5793-5) with two minor modifications, namely: 1) The transformed bacteria were inoculated on an agar based medium instead of a liquid medium; 2) The screen was performed at 25° C. for 4 days.
(§2) The screen media was prepared with a concentration gradient of HPPD inhibitors at the indicated concentrations and the transformed bacteria were inoculated on the screening agar plates. HPPD activity was detected by a brown halo resulting from the HPPD-mediated conversion of p-hydroxyphenylpyruvate (HPP) into homogentisate (HGA), which later is oxidized to a melanin-like pigment. Tembotrione resistance of the transformed bacteria was compared to that of plates inoculated with E. coli BL21 (DE3) transformed with either an empty pET16 vector or a pET16 vector transformed with Arabidopsis thaliana hppd cDNA (accession no. AF047834).

[4] = molecular target: T1, Arabidopsis thaliana HPPD (AtHPPD) (Arabidopsis thaliana, UniProt P93836); assay: Bacterial HPPD-activity assay, E. coli BL21 (DE3) transformed with Arabidopsis thaliana hppd cDNA; assay type: cell-based; details: E. coli BL21 (DE3) on agar plates with concentration gradient of HPPD inhibitors, 25° C., 4 days
T1 construct: expressed in transfected cells; host or cells: E. coli BL21 (DE3), pET16 vector
T1 sequence (P93836 1-445): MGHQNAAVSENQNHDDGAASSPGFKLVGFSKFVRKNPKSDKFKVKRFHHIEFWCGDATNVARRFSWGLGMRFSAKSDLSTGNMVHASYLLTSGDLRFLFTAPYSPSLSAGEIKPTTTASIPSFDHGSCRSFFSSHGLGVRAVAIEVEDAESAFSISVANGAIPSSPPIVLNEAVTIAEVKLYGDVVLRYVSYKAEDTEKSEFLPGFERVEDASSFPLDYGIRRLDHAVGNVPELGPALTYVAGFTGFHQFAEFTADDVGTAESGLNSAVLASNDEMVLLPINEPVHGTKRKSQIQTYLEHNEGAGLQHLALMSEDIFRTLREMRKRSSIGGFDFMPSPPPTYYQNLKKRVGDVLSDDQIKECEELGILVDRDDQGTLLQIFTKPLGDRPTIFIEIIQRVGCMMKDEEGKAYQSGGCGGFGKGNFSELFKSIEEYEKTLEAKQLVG
Protocol: as §1, §2

G. max HPPD = assay: HPPD-activity screen of soy HPPD mutants in E. coli BL21 (DE3); assay type: cell-based
Source text: A brown halo is indicative of HPPD activity • GmHPPD SEQ ID NO: 118 ([…] […] […] […] […] […] […] AADVLTVDQIKQCEELGILVDRDDQGTLLQIFTKPVGDRPTIFIXIIQRIGC […]), the native G. max HPPD (Accession number: ABQ96868) • GmHPPD.1=GmHPPD (SEQ ID NO: 118) mutated to substitute its motif 1 with motif 1 of SEQ ID NO: 1—i.e. to include amino acid sequences SEQ ID NO: 9-10 or 38; • GmHPPD.2=GmHPPD (SEQ ID NO: 118) mutated to substitute its motif 6.2 (SEQ ID NO: 68) first Y with motif 6.2 of SEQ ID NO: 1 (SEQ ID NO: 20)—i.e. to include the mutation Tyr185Phe to include SEQ ID NO: 157; • GmHPPD.4=GmHPPD (SEQ ID NO: 118) mutated to substitute its motif 2.1 (SEQ ID NO: 57) with motif 2.1 of SEQ ID NO: 1 (SEQ ID NO: 11)—i.e. to include the mutation Ala254Trp to include SEQ ID NO: 129.

Camelina plants = assay: In-planta screen of soy HPPD mutants; assay type: in vivo; details: T1 Camelina, Laudis (Tembotrione) 0.075% three days post seeding, images 19 days post treatment
Protocol: T1 generation transformed seeds of Camelina plants with the Soy HPPD (GmHPPD) mutated gene as compared to wt. Plant were treated with Laudis (Tembotrione) 0.075% three days post seeding. EGFP transformed plants were used as control. Images taken 19 days post treatment. The following were tested: • GmHPPD—SEQ ID NO: 118 the native G. max HPPD (Accession number: ABQ96868) • GmHPPD.1=GmHPPD (SEQ ID NO: 118) mutated to substitute its motif 1 with motif 1 of SEQ ID NO: 1—i.e. to include amino acid sequences set forth in SEQ ID NO: 9-10 or 38; • GmHPPD.2=GmHPPD (SEQ ID NO: 118) mutated to substitute its motif 6.2 (SEQ ID NO: 68) first Y with motif 6.2 of SEQ ID NO: 1 (SEQ ID NO: 20)—i.e. to include the mutation Tyr185Phe to include SEQ ID NO: 157; • GmHPPD.3=GmHPPD (SEQ ID NO: 118) mutated to substitute its motif 7.2 (SEQ ID NO: 70) first Y with motif 7.2 of SEQ ID NO: 1 (SEQ ID NO: 22)—i.e. to include the mutation Tyr243Phe; • GmHPPD.4=GmHPPD (SEQ ID NO: 118) mutated to substitute its motif 2.1 (SEQ ID NO: 57) with motif 2.1 of SEQ ID NO: 1 (SEQ ID NO: 11)—i.e. to include the mutation Ala254Trp to include SEQ ID NO: 129; • GmHPPD.5=GmHPPD (SEQ ID NO: 118) mutated to substitute its motif 3.1 with motif 3.1 of SEQ ID NO: 1—i.e. to include the replacement mutations 338-MPSPPP-343 to INVPG.

[5] = T2 generation, Tembotrione x1=2500 and x0.2=500 μg/ml, Mesotrione x1=50 μg/ml, Topramezon x1=150 and x0.2=30 μg/ml, Isoxaflutole x1=50 μg/ml
[6] = control (wt plants), Tembotrione 2500 and 500 μg/ml, Mesotrione 50 μg/ml, Topramezon 150 and 30 μg/ml, Isoxaflutole 50 μg/ml

Molecule | plant growth in the presence of the herbicide [1, 5] | plant growth in the presence of the herbicide [2, 6] | also measured
CS(=O)(=O)c1cc(C(F)(F)F)ccc1C(=O)c1cnoc1C1CC1 [Isoxaflutole, isoxaflutole] | enabled growth | no plant growth or an acute growth inhibition and leaf bleaching | –
CS(=O)(=O)c1ccc(C(=O)C2C(=O)CCCC2=O)c([N+](=O)[O-])c1 [Mesotrione, mesotrione] | enabled growth | no plant growth or an acute growth inhibition and leaf bleaching | –
Cc1nn(C)c(OCC(=O)c2ccccc2)c1C(=O)c1ccc(Cl)cc1Cl [Pyrazoxyfen, pyrazoxyfen] | – | – | HPPD inhibitor concentration on plates at which HPPD activity (brown halo) was still detected [3]: ≤ 1250 µg/mL
CS(=O)(=O)c1ccc(C(=O)C2C(=O)CCCC2=O)c(Cl)c1COCC(F)(F)F [Tembotrione, tembotrione] | enabled growth | no plant growth or an acute growth inhibition and leaf bleaching | plant growth in the presence of the herbicide ([1]; T1 plants on Basta selection, 0.1% and 0.05% Tembotrione (Laudis) 3-4 days post germination): enabled growth; plant growth in the presence of the herbicide ([2]; control (non-transformed), 0.1% and 0.05% Tembotrione (Laudis)): no plant growth
Cc1c(C(=O)c2cnn(C)c2O)ccc(S(C)(=O)=O)c1C1=NOCC1 [Topramezone, topramezone] | enabled growth | no plant growth or an acute growth inhibition and leaf bleaching | –
AtHPPD: HPPD from Arabidopsis thaliana hppd cDNA (accession no. AF047834) (protein, UniProt P93836 1-445, looked up) 4-hydroxyphenylpyruvate …: MGHQNAAVSENQNHDDGAASSPGFKLVGFSKFVRKNPKSDKFKVKRFHHIEFWCGDATNVARRFSWGLGMRFSAKSDLSTGNMVHASYLLTSGDLRFLFTAPYSPSLSAGEIKPTTTASIPSFDHGSCRSFFSSHGLGVRAVAIEVEDAESAFSISVANGAIPSSPPIVLNEAVTIAEVKLYGDVVLRYVSYKAEDTEKSEFLPGFERVEDASSFPLDYGIRRLDHAVGNVPELGPALTYVAGFTGFHQFAEFTADDVGTAESGLNSAVLASNDEMVLLPINEPVHGTKRKSQIQTYLEHNEGAGLQHLALMSEDIFRTLREMRKRSSIGGFDFMPSPPPTYYQNLKKRVGDVLSDDQIKECEELGILVDRDDQGTLLQIFTKPLGDRPTIFIEIIQRVGCMMKDEEGKAYQSGGCGGFGKGNFSELFKSIEEYEKTLEAKQLVG | – | – | HPPD activity (brown halo) on HPPD inhibitor plates [4]: poor HPPD activity if at all
GmHPPD: the native G. max HPPD (Accession number: ABQ96868) (protein, not fully specified; X: residue not identified in the source) MPIPCNEIQAQAQAQAQPGFKLVGFKNFVRTNPKSDRFQVNRFHHIEFWCTDATNASRRFSWGLGMPIVAKSDLSTGNQIHASYLLRSGDLSFLFSAPYSPSLSAGSSAASSASIPSFDAATCLAFAAKHGFGVRAIALEVADAEAAFSASVAKGAEPASPPVLVDDRTGFAEVRLYGDVVLRYVSYKDAAPQAPHADPSRWFLPGFEAAASSSSFPELDYGIRRLDHAVGNVPELAPAVRYLKGFSGFHEFAEFTAEDVGTSESGLNSVVLANNSETVLLPLNEPVYGTKRKSQIETYLEHNEGAGVQHLALVTHDIFTTLREMRKRSFLGGFEFMPSPPPTYYANLHNRAADVLTVDQIKQCEELGILVDRDDQGTLLQIFTKPVGDRPTIFIXIIQRIGCMVEDEEGKVYQKGACGGFGKGNFSELFKSIEEYEKTLEAKRTA | – | – | HPPD enzymatic activity (brown halo) (G. max HPPD; 5 μM tembotrione): only minor enzymatic activity; HPPD enzymatic activity (brown halo) (G. max HPPD; 10 μM tembotrione): essentially no enzymatic activity; herbicide tolerance of transformed plants (Camelina plants): highly damaged

— patent US11926837B2, “Compositions and methods for controlling plant growth” (PLANTARC BIO LTD., priority 2019, dated 2024)
